In patent US20250057910A1, “Application of Polypeptide in Preparation of Product for Preventing or Treating Skin Injury Diseases” (Sichuan Gooddoctor Panxi Pharmaceutical Co., Ltd., priority 2021, published 2025):
Ends that are not written are not given here.

How the values were obtained:
db/db mice = test: Healing of skin ulcers (full-thickness back wound) in db/db mice; format: in vivo, mouse; conditions: for Wound healing rate: db/db mice, topical, polypeptide 30 μg/cm^2 qd, GeneTime 40 IU/cm^2 qd, Kangfuxin Ye 40 μL/mouse Bid, Mean ± SD, n = 10
Experimental: Experimental animals: Diabetic model mice (db/db male mice), normal mice (m/m male mice), SPF grade, 8-10 weeks of age, weighting 40-50 g, from Changzhou Cavens Experimental Animal Co., Ltd., with the experimental animal production license number of SCXK (Su) 2016-0010, and the experimental animal use license number of SYXK (Shanghai) 2020-0038.
Experimental method: After the blood glucose of the db/db mice reached the standard (blood glucose after fasting for 4 h>16.7 mmol/L), the mice were randomly divided into 5 groups with 10 mice in each group, namely, normal control group, model control group, Kangfuxin Ye group (40 μL per mouse), GeneTime group (40 IU/cm^2), the subject polypeptide group (30 μg/cm^2). After the mice were anesthetized with isoflurane inhalation, a circular wound with a diameter of about 12 mm was cut on the back of the mice with a cutter from the full layers of the skin to reach the fascia layer. The wound was photographed and the wound area was recorded as the baseline value (the wound was recorded as Day0). From the next day (Day 1), the animals in each group were administered as required, and all the skin wounds were applied externally. Both the normal control group and the model control group were given 40 μL of normal saline, and the GeneTime group (40 IU/cm^2) was given Recombinant human epidermal growth factor topical solution diluted in 40 μL of normal saline (Shenzhen Watsin Genetech Ltd.), and the subject polypeptide group (30 μg/cm^2) was given the corresponding concentration of the polypeptide prepared by using 40 μL normal saline, once a day; the Kangfuxin Ye group was given 40 μL of Kangfuxin Ye (SICHUAN GOODDOCTOR PANXI PHARMACEUTICAL CO., LTD.), twice a day. Administration was continued every day until the wound was basically healed. The skin wounds were measured and photographed twice a week, the areas of the wounds were calculated with the Image-J software, and the healing of the wounds in each group of animals was observed.

[1] = test system: HaCaT cells (human immortalized keratinocytes); test: Proliferation of HaCaT cells (CCK8); format: cell-based; conditions: 72 h, 1640 medium with 1% serum, FIG. 1
Experimental: Experimental method: Human immortalized keratinocytes (HaCAT cells) were adjusted to a concentration of 1.0*10^5 to 5.0*10^5/mL for passaging, and cultured at 37° C. and 5% CO2 for 24-36 hours for the biological activity detection. The cells were digested with 0.25% pancreatin for 5 min, a 1640 whole blood medium with more than 1 times the volume of pancreatin was added to stop digestion, a cell suspension was collected and centrifuged at 1000 RPM for 3 min, the supernatant was discarded, 2 mL of 1640 whole blood medium was added to resuspend the cells, 20 uL cell suspension was taken, stained with AOPI, and then the concentration of cells in the suspension was detected with a cell counter, the cell suspension was formulated with 1640 medium with 10% serum to a concentration of 5*10^4/mL and seeded into 96-well cell culture plates with 100 μL per well, i.e. 5000 cells/well, and cultured overnight at 37° C. and 5% CO2.
After 24 hours, the original culture medium was discarded and 100 μL of each of different concentrations of polypeptide solutions formulated with 1640 culture medium with 1% serum was added. […] The mixtures were cultured at 37° C. and 5% CO2 for 72 h, and the proliferation of the HaCaT cell line was detected by the CCK8 kit.

SD rats = test: Healing of full-layer skin defect wound in SD rats; format: in vivo, rat; conditions: for Wound healing rate: SD rats, topical once a day, polypeptide 50 μg/cm^2, comparative polypeptide 1 41.90 μg/cm^2, comparative polypeptide 2 52.66 μg/cm^2, Mean ± SD, n = 8
Experimental: Experimental animals: SD male rats, SPF grade, 6 weeks old, weighing 180-220 g, from Beijing Vital River Laboratory Animal Technology Co., Ltd., with the experimental animal quality certification number of NO.110011220109610345, and the experimental animal use license number of SCXK (Beijing) 2021-0011.
Experimental method: SD rats were randomly divided into […] based on the body weight with 8 animals in each group, namely, vehicle group, the polypeptide group (50 μg/cm^2), comparative polypeptide 1 group (41.90 μg/cm^2) and comparative polypeptide 2 group (52.66 μg/cm^2). The amino acid sequence of comparative polypeptide 1 is Glu-Pro-Val-Pro-Leu; and the amino acid sequence of comparative polypeptide 2 is Pro-Ala-Ala-Glu-Pro-Val-Pro-Leu-Val-Lys-Gln-Glu.
After each experimental rat was anesthetized by intraperitoneal injection of 2% pentobarbital sodium (0.2 mL/100 g), a 2 cm^2 full-layer skin defect wound was prepared at each of both sides of the back spine. After hemostasis of the wound, the corresponding drug was administered at the wound locally by group. Each group was administered once a day, with a dosed volume of 72 μL/wound each time, for 14 consecutive days. After the administration, the wound was covered with a sterile vaseline gauze (5 cm*5 cm), and bandaged with multi-layer sterile gauzes. After the wound surgery, the wound was photographed, and the wound area was recorded as the baseline value (the wound was recorded as Day0). During the administration period, the areas of the wounds were photographed and measured 3 times a week, and the healing was observed.

Sequence: PAAEPVPL [polypeptide]
- Wound healing rate (db/db mice; Day 0 (baseline)): 0.00 ± 0.00%
- Wound healing rate (db/db mice; Day 3): −4.66 ± 17.55%
- Wound healing rate (db/db mice; Day 7): 13.06 ± 17.65%
- Wound healing rate (db/db mice; Day 10): 40.91 ± 16.33%
- Wound healing rate (db/db mice; Day 14): 89.44 ± 8.99 %
- Skin wound healing in diabetic mice (statement in words) (db/db mice; day 14, 30 μg/cm^2 qd, vs model control): significantly promote skin wound healing
- Proliferation-promoting effect on the HaCaT cell line [1]: significant effect of promoting proliferation
- Healing rate of full-layer skin defect wound (statement in words) (SD rats; 50 μg/cm^2, days 3-10 after surgery, vs vehicle group): higher healing rate with a significant difference
- Wound healing rate (SD rats; Day 0 (baseline)): 0.00 ± 0.00%
- Wound healing rate (SD rats; Day 3): 29.70 ± 19.21 %
- Wound healing rate (SD rats; Day 5): 52.21 ± 11.54 %
- Wound healing rate (SD rats; Day 7): 74.12 ± 5.95 %
- Wound healing rate (SD rats; Day 10): 94.55 ± 2.40 %
